For 27 compounds, IC50 results are on record in patent publication US10323022B2, “Pyrrolidinyl urea, pyrrolidinyl thiourea and pyrrolidinyl guanidine compounds as TrkA kinase inhibitors” (Array BioPharma Inc., priority 2011, dated 2019).

pIC50: −log10 of the molar value. Where a name gives a salt, the structure may show the parent alone.

TrkA, sequence (P04629 33-796): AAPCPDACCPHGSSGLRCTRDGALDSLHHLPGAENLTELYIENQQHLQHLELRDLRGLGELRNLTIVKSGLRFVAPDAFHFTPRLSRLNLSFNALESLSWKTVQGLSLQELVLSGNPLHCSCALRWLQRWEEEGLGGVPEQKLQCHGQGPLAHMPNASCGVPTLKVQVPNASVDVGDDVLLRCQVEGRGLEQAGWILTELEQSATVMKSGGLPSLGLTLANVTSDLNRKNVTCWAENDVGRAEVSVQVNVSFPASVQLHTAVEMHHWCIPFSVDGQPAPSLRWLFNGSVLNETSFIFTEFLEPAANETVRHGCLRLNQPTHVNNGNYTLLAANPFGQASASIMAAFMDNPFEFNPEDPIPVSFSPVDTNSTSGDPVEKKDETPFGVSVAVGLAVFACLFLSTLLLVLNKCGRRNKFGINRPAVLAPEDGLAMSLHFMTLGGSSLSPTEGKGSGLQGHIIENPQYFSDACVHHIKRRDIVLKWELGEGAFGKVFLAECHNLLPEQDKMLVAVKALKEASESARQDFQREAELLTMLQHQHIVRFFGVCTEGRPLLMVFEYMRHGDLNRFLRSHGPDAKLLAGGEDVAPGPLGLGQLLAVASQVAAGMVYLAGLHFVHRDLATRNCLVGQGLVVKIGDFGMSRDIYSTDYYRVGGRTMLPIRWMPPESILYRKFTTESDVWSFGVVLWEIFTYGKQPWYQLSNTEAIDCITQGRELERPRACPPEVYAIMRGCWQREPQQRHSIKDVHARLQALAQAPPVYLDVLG

This experiment addresses TrkA (Homo sapiens (Human), UniProt P04629). Put plainly: TrkA Omnia Assay. Type of experiment: biochemical. To be noted: averaged IC50; 20 nM enzyme, 500 μM ATP, 10 μM peptide substrate. The procedure, abridged: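 Recombinant TrkA (20 nM) preincubated 10 min at ambient temperature with compound, then Omnia Tyr Peptide #4 (10 μM) and ATP (500 μM) added in 25 mM MOPS pH 7.5, 5 mM MgCl2, 0.005% Triton X-100. Fluorescence (ex 360/em 485 nm) followed continuously for 70 min; IC50 from initial rates by 4- or 5-parameter logistic fit.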
For the compound `COCCN1C[C@@H](NC(=O)Nc2c(C(N)=O)c(C(F)(F)F)nn2-c2ccccc2)[C@H](c2ccc(F)c(F)c2)C1` [Example 622, 5-(3-((3S,4R)-4-(3,4-difluorophenyl)-1-(2-methoxyethyl)pyrrolidin-3-yl)ureido)-1-phenyl-3-(trifluoromethyl)-1H-pyrazole-4-carboxamide], the pIC50 was greater than 7.00.

Turning to `COCCN1C[C@@H](NC(=O)Nc2c(C)c(Br)nn2-c2ccccc2)[C@H](c2ccc(F)c(F)c2)C1` [Example 352, 1-(3-bromo-4-methyl-1-phenyl-1H-pyrazol-5-yl)-3-((3S,4R)-4-(3,4-difluorophenyl)-1-(2-methoxyethyl)pyrrolidin-3-yl)urea], the pIC50 is greater than 7.00. `COCCN1C[C@@H](NC(=O)Nc2c(C)c([C@H]3CCCN3C)nn2-c2ccccc2)[C@H](c2ccc(F)c(F)c2)C1` [Example 597, 1-((3S,4R)-4-(3,4-difluorophenyl)-1-(2-methoxyethyl)pyrrolidin-3-yl)-3-(4-methyl-3-((R)-1-methylpyrrolidin-2-yl)-1-phenyl-1H-pyrazol-5-yl)urea dihydrochloride] showed a pIC50 greater than 7.00. As for `COCCN1C[C@@H](NC(=O)Nc2c(Cl)c(-c3cnn(C)c3)nn2-c2ccccc2)[C@H](c2ccc(F)c(F)c2)C1` [Example 423, 1-(4-chloro-1′-methyl-1-phenyl-1H,1′H-[3,4′-bipyrazol]-5-yl)-3-((3S,4R)-4-(3,4-difluorophenyl)-1-(2-methoxyethyl)pyrrolidin-3-yl)urea], the pIC50 was greater than 7.00.

`CCc1c(OCC(C)(C)O)nn(-c2ccccc2)c1NC(=O)N[C@@H]1CN(CCOC)C[C@H]1c1ccc(F)c(F)c1` [Example 542, 1-((3S,4R)-4-(3,4-difluorophenyvl)-1-(2-methoxyethyl)pyrrolidin-3-yl)-3-(4-ethyl-3-(2-hydroxy-2-methylpropoxy)-1-phenyl-1H-pyrazol-5-yl)urea] showed a pIC50 greater than 7.00. For the compound `COCCN1C[C@@H](NC(=O)Nc2c(C(N)=O)cnn2-c2ccccc2)[C@H](c2ccc(F)c(F)c2)C1` [Example 627, 5-(3-((3S,4R)-4-(3,4-difluorophenyl)-1-(2-methoxyethyl)pyrrolidin-3-yl)ureido)-1-phenyl-1H-pyrazole-4-carboxamide], the pIC50 was greater than 7.00.

For the compound `COCCN1C[C@@H](NC(=O)Nc2c(C)c(-c3cnn(C(C)C)c3)nn2-c2ccccc2)[C@H](c2ccc(F)cc2)C1` [Example 518, 1-((3S,4R)-4-(4-fluorophenyl)-1-(2-methoxyethyl)pyrrolidin-3-yl)-3-(1′-isopropyl-4-methyl-1-phenyl-1H, 1′H-[3,4′-bipyrazol]-5-yl)urea], the pIC50 is greater than 7.00.

Compound `COCCN1C[C@@H](NC(=O)Nc2c(C)c(-c3cnn(C)n3)nn2-c2ccccc2)[C@H](c2ccc(F)c(F)c2)C1` [Example 351, 1-((3S,4R)-4-(3,4-difluorophenyl)-1-(2-methoxyethyl)pyrrolidin-3-yl)-3-(4-methyl-3-(2-methyl-2H-1,2,3-triazol-4-yl)-1-phenyl-1H-pyrazol-5-yl)urea] showed a pIC50 greater than 7.00. As to `COC[C@H](N1C[C@@H](NC(=O)Nc2c(C)c(OC[C@H](C)O)nn2-c2ccccc2)[C@H](c2ccc(F)c(F)c2)C1)C(F)(F)F` [Example 277, 1-((3S,4R)-4-(3,4-difluorophenyl)-1-((S)-1,1,1-trifluoro-3-methoxypropan-2-yl)pyrrolidin-3-yl)-3-(3-((S)-2-hydroxypropoxy)-4-methyl-1-phenyl-1H-pyrazol-5-yl)urea], the pIC50 is greater than 7.00. The same measure for `CCOc1nn(-c2ccccc2)c(NC(=O)N[C@@H]2CN(c3ccccc3OC)C[C@H]2c2ccc(F)c(F)c2)c1C` [Example 233, 1-((3S,4R)-4-(3,4-difluorophenyl)-1-(2-methoxyphenyl)pyrrolidin-3-yl)-3-(3-ethoxy-4-methyl-1-phenyl-1H-pyrazol-5-yl)urea]: 6.00 to 7.00; for `COCCN1C[C@@H](NC(=O)Nc2cc(-c3ccc(C(=O)OC)cc3)nn2C)[C@H](c2ccc(F)c(F)c2)C1` [Example 121, methyl 4-(5-(3-((3S,4R)-4-(3,4-difluorophenyl)-1-(2-methoxyethyl)pyrrolidin-3-yl)ureido)-1-methyl-1H-pyrazol-3-yl)benzoate]: greater than 7.00. The same measure for `O=C(Nc1c2c(nn1-c1ccccc1)CCC2)N[C@@H]1CN(CC(F)(F)F)C[C@H]1c1cccc(F)c1` [Example 200, 1-((3S,4R)-4-(3-fluorophenyl)-1-(2,2,2-trifluoroethyl)pyrrolidin-3-yl)-3-(2-phenyl-2,4,5,6-tetrahydrocyclopenta[c]pyrazol-3-yl)urea]: 6.00 to 7.00. In the case of `COCCOc1nn(-c2ccccc2)c(NC(=O)N[C@@H]2CN(CCOC)C[C@H]2c2ccc(F)c(F)c2)c1C` [Example 137, 1-((3S,4R)-4-(3,4-difluorophenyl)-1-(2-methoxyethyl)pyrrolidin-3-yl)-3-(3-(2-methoxy-ethoxy)-4-methyl-1-phenyl-1H-pyrazol-5-yl)urea], the pIC50 was greater than 7.00. As to `COCCN1C[C@@H](NC(=O)Nc2c(Cl)c(-c3cccnc3)nn2-c2ccccc2)[C@H](c2ccc(F)c(F)c2)C1` [Example 482, 1-(4-chloro-1-phenyl-3-(pyridin-3-yl)-1H-pyrazol-5-yl)-3-((3S,4R)-4-(3,4-difluorophenyl)-1-(2-methoxyethyl)pyrrolidin-3-yl)urea], the pIC50 is greater than 7.00. Compound `COCCN1C[C@@H](NC(=O)Nc2cc(-c3cccc(C#N)c3)nn2C)[C@H](c2ccc(F)c(F)c2)C1` [Example 59, 1-(3-(3-cyanophenyl)-1-methyl-1H-pyrazol-5-yl)-3-((3S,4R)-4-(3,4-difluorophenyl)-1-(2-methoxyethyl)pyrrolidin-3-yl)urea] had a pIC50 greater than 7.00. Regarding `COCCN1C[C@@H](NC(=O)Nc2c(Cl)c(-c3ccccc3)nn2-c2ccccc2)[C@H](c2cncc(F)c2)C1` (relative stereo) [Example 436, 1-(4-chloro-1,3-diphenyl-1H-pyrazol-5-yl)-3-(trans-4-(5-fluoropyridin-3-yl)-1-(2-methoxyethyl)pyrrolidin-3-yl)urea], the pIC50 was greater than 7.00. In turn, `COCCN1C[C@@H](NC(=O)Nc2c(Br)c(OC[C@@H](C)O)nn2-c2ccccc2)[C@H](c2cc(F)cc(F)c2)C1` [Example 376, 1-(4-bromo-3-((R)-2-hydroxypropoxy)-1-phenyl-1H-pyrazol-5-yl)-3-((3S,4R)-4-(3,5-difluorophenyl)-1-(2-methoxyethyl)pyrrolidin-3-yl)urea] gave a pIC50 greater than 7.00.

On to `COCCN1C[C@@H](NC(=O)Nc2c(C)c(-c3cnc(OC)nc3)nn2-c2ccccc2)[C@H](c2ccc(F)cc2)C1` [Example 528, 1-((3S,4R)-4-(4-fluorophenyl)-1-(2-methoxyethyl)pyrrolidin-3-yl)-3-(3-(2-methoxypyrimidin-5-yl)-4-methyl-1-phenyl-1H-pyrazol-5-yl)urea], for which the pIC50 was greater than 7.00. In the case of `COCCN1C[C@@H](NC(=O)Nc2c(Br)c(COC)nn2-c2ccccc2)[C@H](c2cc(F)cc(F)c2)C1` [Example 406, 1-(4-bromo-3-(methoxymethyl)-1-phenyl-1H-pyrazol-5-yl)-3-((3S,4R)-4-(3,5-difluorophenyl)-1-(2-methoxyethyl)pyrrolidin-3-yl)urea], the pIC50 is greater than 7.00. On to `COCCN1C[C@@H](NC(=O)Nc2cc(-c3cnn(C)c3)nn2-c2ccccc2)[C@H](c2ccc(F)c(F)c2)C1` [Example 73, 1-((3S,4R)-4-(3,4-difluorophenyl)-1-(2-methoxyethyl)pyrrolidin-3-yl)-3-(1′-methyl-1-phenyl-1H,1′H-3,4′-bipyrazol-5-yl)urea], for which the pIC50 was greater than 7.00.

`COCCN1C[C@@H](NC(=O)Nc2c(C)c(-c3cnn(C)n3)nn2-c2ccccc2)[C@H](c2ccc(F)cc2)C1` [Example 385, 1-((3S,4R)-4-(4-fluorophenyl)-1-(2-methoxyethyl)pyrrolidin-3-yl)-3-(4-methyl-3-(2-methyl-2H-1,2,3-triazol-4-yl)-1-phenyl-1H-pyrazol-5-yl)urea] had a pIC50 greater than 7.00. Turning to `COCCN1C[C@@H](NC(=O)Nc2c(Cl)c(-c3ccccn3)nn2-c2ccccc2)[C@H](c2ccc(F)c(F)c2)C1` [Example 480, 1-(4-chloro-1-phenyl-3-(pyridin-2-yl)-1H-pyrazol-5-yl)-3-((3 S,4R)-4-(3,4-difluorophenyl)-1-(2-methoxyethyl)pyrrolidin-3-yl)urea], the pIC50 was greater than 7.00.

Compound `Cc1nn(-c2ccccc2)c(NC(=O)N[C@@H]2CN(CCO)C[C@H]2c2ccc(F)c(F)c2)c1C` [Example 191, 1-((3S,4R)-4-(3,4-difluorophenyvl)-1-(2-hydroxyethyl)pyrrolidin-3-yl)-3-(3,4-dimethyl-1-phenyl-1H-pyrazol-5-yl)urea] had a pIC50 of 6.00 to 7.00. Take `COCCN1C[C@@H](NC(=O)Nc2c(C)c(=O)[nH]n2-c2ccccc2)[C@H](c2ccc(Cl)c(F)c2)C1` (relative stereo) [Example 609, 1-((trans)-4-(4-chloro-3-fluorophenyl)-1-(2-methoxyethyl)pyrrolidin-3-yl)-3-(4-methyl-5-oxo-2-phenyl-2,5-dihydro-1H-pyrazol-3-yl)urea]: the pIC50 is greater than 7.00. As for `COCCN1C[C@@H](NC(=O)Nc2cc(-c3ccccc3)nn2C)[C@H](c2cccc(F)c2)C1` [Example 110, 1-((3S,4R)-4-(3-fluoro-phenyl)-1-(2-methoxy-ethyl)pyrrolidin-3-yl)-3-(1-methyl-3-phenyl-1H-pyrazol-5-yl)urea], the pIC50 was greater than 7.00. Compound `COc1ncccc1N1C[C@@H](NC(=O)Nc2c(C)c(-c3ccccc3)nn2-c2ccccc2)[C@H](c2ccccc2)C1` [Example 245, 1-((3S,4R)-1-(2-methoxypyridin-3-yl)-4-phenylpyrrolidin-3-yl)-3-(4-methyl-1,3-diphenyl-1H-pyrazol-5-yl)urea] gave a pIC50 of 6.00 to 7.00. For the compound `COCCN1C[C@@H](NC(=O)Nc2cc(-c3ccc(S(C)(=O)=O)cc3)nn2C)[C@H](c2ccc(F)c(F)c2)C1` [Example 166, 1-((3S,4R)-4-(3,4-difluorophenyl)-1-(2-methoxyethyl)pyrrolidin-3-yl)-3-(1-methyl-3-(4-(methylsulfonyl)phenyl)-1H-pyrazol-5-yl)urea], the pIC50 is greater than 7.00.
